According to patent publication US20220280508A1 (priority 2019, published 2022):
“Also recorded” adds a separate entry of the source. Marks after values point to notes of the source that are not given here.

Columns and labels:
[1] = tested on: Macrophage RAW264.7
[2] = tested on: PR8 influenza virus; conditions: mouse, in vivo
[3] = tested on: iNOS; assay type: cell-based, Mouse
[4] = tested on: TNF-α, IL-1α, IL-6
[5] = tested on: influenza; conditions: human, in vivo
[6] = tested on: HSV-1; assay type: in vivo, Kunming mice; conditions: n 15
[7] = tested on: Staphylococcus aureus; assay type: in vivo, ICR mice; conditions: n = 10
[8] = tested on: Streptococcus pneumoniae; assay type: in vivo, ICR mice; conditions: n = 10
[9] = tested on: Mycoplasma pneumoniae (ATCCFH15531); assay type: in vivo, BALB/C mice
[10] = tested on: Pseudomonas aeruginosa; assay type: in vivo, BAL B/C male mice; conditions: 14 days

## 6S-5-methyltetrahydrofolate calcium
[1]
  secretion of NO in macrophages: promote the secretion of NO
[2]
  condition of the administration group (body weight, body temperature, food intake, water intake, survival curves): greatly improved
[3]
  expression of iNOS in macrophages induced by LPS: did not affect expression of iNOS; also recorded: almost no effect
[4]
  expression of macrophages and inflammatory factors induced by LPS: no significant effect
[5]
  Mean disappearance time: Cough: 35.7 h
  Mean disappearance time: Dizziness and fullness in head: 28.5 h
  Mean disappearance time: Dry and itchy throat: 15.0 h
  Mean disappearance time: Fatigue: 14.1 h
  Mean disappearance time: Headache: 13.7 h
  Mean disappearance time: Inappetence: 13.0 h
  Mean disappearance time: Intolerance of cold and cold limbs: 10.0 h
  Mean disappearance time: Low fever: 10.0 h
  Mean disappearance time: Muscular soreness: 14.9 h
  Mean disappearance time: Nasal stuffiness: 23.0 h
  Mean disappearance time: Running nose: 20.6 h
  Mean disappearance time: Sneezing: 18.1 h
  Mean disappearance time: Sore throat: 29.4 h
  Mean time: Basic rehabilitation: 27.4 h
  Mean time: Complete rehabilitation: 32.9 h
  disappearance time of symptoms: Dry and itchy throat: 15 h
  disappearance time of symptoms: Inappetence: 13 h
  disappearance time of symptoms: Intolerance of cold and cold limbs: 10 h
  disappearance time of symptoms: Low fever: 10 h
  time in which the patients' influenza almost all healed: ≤ 2 days

## Nc1nc2c(ncn2COCCO)c(=O)[nH]1 [Acyclovir, acyclovir]
[6]
  Mortality: 60%
  Number of deaths, 48 h: 0
  Number of deaths, D4: 4
  Number of deaths, D7: 5

## CC1(C)S[C@@H]2[C@H](NC(=O)[C@H](N)c3ccc(O)cc3)C(=O)N2[C@H]1C(=O)O [Amoxicillin, amoxicillin]
[7]
  Survival rate, Staphylococcus aureus: 70** %
[8]
  Survival rate, Streptococcus pneumoniae: 50* %

## NC(=O)c1ccc[n+]([C@@H]2O[C@H](COP(=O)([O-])O)[C@@H](O)[C@H]2O)c1 [NMN, nicotinamide mononucleotide]
[3]
  expression of iNOS in macrophages induced by LPS: did not affect expression of iNOS; also recorded: almost no effect

## CC[C@H]1OC(=O)[C@H](C)[C@@H](O[C@H]2C[C@@](C)(OC)[C@@H](O)[C@H](C)O2)[C@H](C)[C@@H](O[C@@H]2O[C@H](C)C[C@H](N(C)C)[C@H]2O)[C@](C)(O)C[C@@H](C)CN(C)[C@H](C)[C@@H](O)[C@]1(C)O [azithromycin]
[9]; 10 days
  Histopathological examination of the lung tissue: Mild interstitial pneumonia
[9]; mouse, in vivo
  Splenic index: 4.515 ± 0.982 mg/g
  Thymic index: 3.818 ± 1.232 mg/g

## O=C1O[C@H]([C@@H](O)CO)C(=O)C1=O [dehydroascorbic acid]
[3]
  expression of iNOS in macrophages induced by LPS: almost no effect

## N[C@@H](CCC(=O)N[C@@H](CS)C(=O)NCC(=O)O)C(=O)O [glutathione, reference compound]
[3]
  expression of iNOS in macrophages induced by LPS: did not affect expression of iNOS; also recorded: almost no effect

## C[C@@H](O)[C@H]1C(=O)N2C(C(=O)O)=C(S[C@@H]3CN[C@H](C(=O)N(C)C)C3)[C@H](C)[C@H]12 [meropenem]
[10]
  survival of mice infected with the fatal dose of Pseudomonas aeruginosa: 100%

## penicillin
[10]
  survival of mice infected with the fatal dose of Pseudomonas aeruginosa: all the mice in the penicillin group died
